ChEMBL document CHEMBL1135013, “A simple and rapid method for the differentiation of C-13 manoyl oxide epimers in biologically important samples using GC-MS analysis supported with NMR spectroscopy and computational chemistry results” (2002)
In brackets after ≈: the same amount, converted by molar mass.

How the values were obtained:
Type in all cases: functional
Escherichia coli = assay: Compound (isolated from leaves of Cistus monspeliensis) was tested for antimicrobial activity against Escherichia coli (ATCC 25922)
Klebsiella pneumoniae = assay: Compound (isolated from leaves of Cistus monspeliensis) was tested for antimicrobial activity against Klebsiella pneumoniae (ATCC 13883)
[1] = tested on: Staphylococcus epidermidis; assay: Compound (isolated from leaves of Cistus monspeliensis) was tested for antimicrobial activity against Staphylococcus epidermidis (ATCC 12228)
Staphylococcus hominis = assay: Compound (isolated from leaves of Cistus monspeliensis) was tested for antimicrobial activity against Staphylococcus hominis (ATCC 27844)
Staphylococcus aureus = assay: Compound (isolated from leaves of Cistus monspeliensis) was tested for antimicrobial activity against Staphylococcus aureus (ATCC 6538)

SMILES | MIC50 (Escherichia coli) | MIC50 (Klebsiella pneumoniae) | MIC50 [1] | MIC50 (Staphylococcus hominis) | MIC50 (Staphylococcus aureus)
CN[C@@H]1[C@H](O[C@H]2[C@H](O[C@H]3[C@H](O)[C@@H](O)[C@H](N=C(N)N)[C@@H](O)[C@@H]3N=C(N)N)O[C@@H](C)[C@]2(O)C=O)O[C@@H](CO)[C@H](O)[C@H]1O [STREPTOMYCIN] | 0.6 µg/mL (≈ 1.03 µM) | 0.6 µg/mL (≈ 1.03 µM) | 2.1 µg/mL (≈ 3.61 µM) | 2.1 µg/mL (≈ 3.61 µM) | 2.1 µg/mL (≈ 3.61 µM)
C=C[C@@]1(C)CC[C@@H]2[C@](C)(CCC3C(C)(C)CCC[C@]32C)O1 (some centres not stated) | > 2000 µg/mL | > 2000 µg/mL | – | – | –
